1 substance from US9888679B2, “Protection of progenitor cells and regulation of their differentiation” (Proteobioactives Pty Ltd, priority 2007, dated 2018) can be followed below.

“Also recorded” adds a separate entry of the source.

Holding throughout (format): cell-based
One experiment has as its system Normal Human MSCs. Put plainly: Freeze/thaw viability of MSCs cryopreserved with PPS, trypan blue cell counts. The method, then: FIG. 1. The Effects of Pentosan Polysulfate (PPS) on Normal Human MSCs Freeze/Thaw Viabilities. MSCs were rapidly thawed in a 37° C. water bath and washed twice with HHF (HBSS containing 5% (v/v) Foetal Calf Serum). The cells were subsequently seeded into multiple T-75 flasks at 8,000 cells/cm^2. The cells were grown until 70-80% confluent, trypsinised and cryopreserved at cell concentrations of 50×10^6/ml in Profreeze®/7.5% DMSO supplemented with PPS at the indicated concentrations. Ampoules were retrieved from liquid nitrogen storage and rapidly thawed, gently mixed and 10 ul samples removed at time=0, 30, 60, 90 and 120 minutes. To each cell sample, 290 ul of trypan blue was added and cell counts/viability testing performed.
Cells were harvested and resuspended in cold serum free culture medium at 5.0 to 20.0×10^6 cells/ml. An equal volume of chilled complete Profreeze®-CDM medium was added to the chilled cell suspension containing 0, 10, 20, 50 and 100 micrograms/mL of PPS. The resulting final DMSO concentration was 7.5%, PPS concentration was 0, 5, 10, 25 and 50 micrograms/mL and the final cell concentration was approximately 2.5 to 10×10^6 cells/ml. The cell mixture was aliquoted into cryopreservation ampoules (Nunc, Intermed, Denmark) and cryopreserved in a C156 Freezing Container (Thermo Scientific, Melbourne, 21 Australia) at −80° C. for a −1° C./minute controlled cooling rate. The ampoules were then transferred to liquid nitrogen storage (−196° C.).
Cyropreserved cells were rapidly thawed for a minute in a 37° C. water bath and transferred to a 10 mL polypropylene tube. Approximately 3 mL of appropriate media was added dropwise to the cells with constant mixing, and made up to a final volume of 10 mL. Cells were pelleted by centrifugation at 400×g, 4° C. for 5 minutes and the supernatant aspirated. To ensure removal of residual DMSO, cells were washed in medium and centrifuged as above. Cells were resuspended in final volume of 10 mL and seeded in a 75 cm^2 flask prior to incubation in a humidified incubator at 37° C. in the presence of 5% CO2.
Aliquots of single-cell suspensions obtained after thawing progenitor cells from the PPS containing cryopreserved vials were diluted in an equal volume of 0.4% (w/v) trypan blue in phosphate buffered saline (PBS). The cell counts were determined using a haemocytometer (Neubauer Improved, Assistant, Germany) and a light microscope (Olympus CKX41, Japan).

The next experiment has as its system Murine ATDC5 cell line. In words: Proteoglycan biosynthesis (35S-GAG) in pellet cultures. As to conditions: 2 micrograms/mL; 6 day pellet culture; FIG. 12. The source says:
FIG. 12. A bar graph of the concentration dependent effects of Pentosan Polysulfate (PPS), on the biosynthesis of Proteoglycans (PGs) as determined by the incorporation of radioactively labelled sulfate into the sulfated glycosaminoglycans (^35S-GAG) of PGs in 6 day pellet cultures of murine progenitor cells (ADTC-5). *=p<0.05 relative to control.
FIG. 22. A bar graph of the concentration dependent effects of rhNC4 (batch PBA-1202P) expressed by K. lactis, in the absence (maintenance media, MM) and presence of insulin (10 micrograms/mL) (differentiation media, DM), on the biosynthesis of Proteoglycans PGs) in pellet cultures of ATDC5 cells. Data is shown as the % change relative to controls taken to be 100%.
Murine Progenitor cells (cell lines C3H10T1/2 or ATDC5) purchased from RIKEN Cell Bank (Tsukuba, Japan) or human immunoselected Stro-1+ Progenitor cells (Mesoblast Ltd, Melbourne, Australia) were seeded in 2 ml screw-capped sterile centrifuge tubes and the total volume made-up to 1 ml with DMEM-High glucose medium containing 10% FBS. Progenitor cells were then centrifuged at 500 g for 10 min in a swing-out rotor at room temperature. The screw caps were loosened and the tubes placed in an incubator at 37° C., in a 5% CO2/95% air moist atmosphere. The pellets generally formed within 24 hours. Medium was changed daily in the first two days, then once every 2-3 days thereafter. On day 5 the medium was removed and to each tube was added 1 ml with DMEM-High glucose medium containing 10% FBS, 5.0 μCi/ml ^35S-H2SO4 and various concentrations of PPS (0, 0.1, 0.5, 1.0, 2.5, 5.0, 10.0, 20.0, μg/ml) (FIG. 12-15) or rhNC4 (0, 0.1, 0.5, 1.0, 2.0 μg/ml) (FIG. 22). Triplicate cultures were used for all concentration of drugs. The screw caps were loosened and the tubes placed in an incubator at 37° C., in a 5% CO2/95% moist air atmosphere […]. On day 6, 200 μl of stock papain solution [2.5 mg/ml papain, 7.9 mg/ml L-Cystein in papain buffer (0.1 M NaAC, 5 mM EDTA, pH6.0)] was added to each tube. The tubes were tightly capped and incubated at 65° C. for 2 hours. After papain digestion, 4 replicates of 200 μl of papain digested solution were separately transferred to a 96-well micro-titre plate (200 μl/well). The remaining solution was used for the DNA fluorometric assays which were undertaken in triplicate as described above. Biosynthesis of ^35S-GAGs was determined as described for the monolayer cultures and the results expressed as ^35-S-GAGs/μg DNA.
Data is shown as the % of controls taken to be 100%.

Experiment [1] has as its system Primary human progenitor cells. In words: Progenitor cell proliferation, WST-1 assay. As to conditions: FIG. 4. How it is done: FIG. 4. The Effects of Pentosan Polysulfate (PPS) on Human Progenitor cell Proliferation. Primary human progenitor cells were cultured in 24 well plates in growth media supplemented with PPS at the indicated concentrations. At various time intervals (day 1, 3, 6), the growth media was removed and replaced with phenol red free media containing the tetrazolium salt WST-1 for 2 hours at 37° C./5% CO2. WST-1 is cleaved by mitochondrial dehydrogenase in viable cells to produce a formazan dye that can be detected using an ELISA plate reader at a wavelength of 450 nm. Absorbance at 450 nm for each time point is shown for all concentrations of PPS.
FIG. 20. […] At various time intervals (day 3 & 5), the growth media was removed and replaced with phenol red free media containing the tetrazolium salt WST-1 for 2 hours at 37° C./5% CO2. Absorbance at 450 nm for each time point is shown for all concentrations of PPS and HA.
Primary human progenitor cells were cultured in 24 well plates in growth media supplemented with PPS at the indicated concentrations. At various time intervals (day 1, 3, 6), the growth media was removed and replaced with phenol red free media containing the tetrazolium salt WST-1 for 2 hours at 37° C./5% CO2. WST-1 is cleaved by mitochondrial dehydrogenase in viable cells to produce a formazan dye that can be detected using an ELISA plate reader at a wavelength of 450 nm. Absorbance at 450 nm for each time point is shown for all concentrations of PPS.
For orientation: Tetrazolium assays rely on reduction of a dye to a coloured formazan, in cell work by metabolically active cells.

For the substance pentosan polysulfate [PPS], the “cell viability after cryopreservation and thawing” value is “beneficial effect on viability at 60 minutes” in the experiment on Normal Human MSCs (5 μg/ml PPS); “beneficial effect at time point 0 and then at 60 and 90 minutes” in the experiment with Normal Human MSCs (10 μg/ml PPS); “either enhanced the viability or did not adversely affect the viability” in the experiment with Normal Human MSCs (25 μg/ml PPS, all time points instead of 30 minutes); “enhanced the viability of the progenitor cells at all time points” in the experiment on Normal Human MSCs (50 μg/ml PPS, with the exception of 30 minutes); “did not adversely affect cell viability; also recorded: did not have an adverse effect on the cryopreservation; also recorded: did not have an adverse effect and may enhance the cryopreservation of progenitor cells” in the experiment on Normal Human MSCs (Profreeze/7.5% DMSO with PPS 5-50 μg/ml, 0-120 min after thawing, FIG. 1); “no detrimental effect on their viability” in the experiment on Normal Human MSCs (Profreeze/7.5% DMSO with PPS 5-50 μg/ml, 0-120 min after thawing, FIG. 1, listed as polysulfated polysaccharides). The “increase of proteoglycan (PG) synthesis relative to control culture” value with Murine ATDC5 cell line came to 25%. Besides, the “cell division (WST-1 cleavage assay)” value in experiment [1] (1-5 micrograms/mL, monolayer) is “Marked stimulation of cell division”. Further, in experiment [1] (day 6, PPS in excess of 1 μg/ml, p<0.01, ANOVA), the “proliferation (WST-1, absorbance at 450 nm)” value is reported as “statistically significant increase in proliferation”.
